Assay results: patent US10681909B2, “Herbicidal triazoles” (FMC Corporation, priority 2014, dated 2020)

Key:
velvetleaf [1] = test: Test A preemergence; format: in vivo, Abutilon theophrasti; conditions: 0 to 100 scale (0 no effect, 100 complete control)
Text: (§1) Seeds of plant species selected from barnyardgrass (Echinochloa crus-galli), crabgrass, large (large crabgrass, Digitaria sanguinalis), kochia (Kochia scoparia), ragweed (common ragweed, Ambrosia elatior), foxtail, giant (giant foxtail, Setaria faberii), morningglory (Ipomoea spp.), pigweed (Amaranthus retroflexus), velvetleaf (Abutilon theophrasti), ryegrass, Italian (Italian ryegrass, Lolium multiflorum), wheat (Triticum aestivum), and corn (Zea mays) were planted into a blend of loam soil and sand and treated preemergence with a directed soil spray using test chemicals formulated in a non-phytotoxic solvent mixture which included a surfactant. At the same time, plants selected from these crop and weed species and also blackgrass (Alopecurus myosuroides), and galium (catchweed bedstraw, Galium aparine), were planted in pots containing the same blend of loam soil and sand and treated with postemergence applications of test chemicals formulated in the same manner. Plants ranged in height from 2 to 10 cm and were in the one- to two-leaf stage for the postemergence treatment. […] A dash (-) response means no test result.

corn [2] = test: Test A postemergence; format: in vivo, Zea mays; conditions: 0 to 100 scale (0 no effect, 100 complete control), approx. 10 d
Text: as §1

pigweed [3] = test: Test A postemergence; format: in vivo, Amaranthus retroflexus; conditions: 0 to 100 scale (0 no effect, 100 complete control), approx. 10 d
Text: as §1

foxtail, giant [4] = test: Test A postemergence; format: in vivo, Setaria faberii; conditions: 0 to 100 scale (0 no effect, 100 complete control), approx. 10 d
Text: as §1

morningglory [5] = test: Test A postemergence; format: in vivo, Ipomoea spp.; conditions: 0 to 100 scale (0 no effect, 100 complete control), approx. 10 d
Text: as §1

ducksalad = test: Test B flooded paddy test; format: in vivo, Heteranthera limosa; conditions: 125 g ai/ha, applied to paddy water at 2-leaf stage, visual rating after 13 to 15 d, scale 0 (no effect) to 100 (complete control)
Text: (§2) At time of treatment, test pots were flooded to 3 cm above the soil surface, treated by application of test compounds directly to the paddy water, and then maintained at that water depth for the duration of the test. Treated plants and controls were maintained in a greenhouse for 13 to 15 d, after which time all species were compared to controls and visually evaluated. […] A dash (-) response means no test result.

barnyardgrass [6] = test: Test B flooded paddy test; format: in vivo, Echinochloa crus-galli; conditions: 125 g ai/ha, applied to paddy water at 2-leaf stage, visual rating after 13 to 15 d, scale 0 (no effect) to 100 (complete control)
Text: as §2

crabgrass, large [7] = test: Test A postemergence; format: in vivo, Digitaria sanguinalis; conditions: 0 to 100 scale (0 no effect, 100 complete control), approx. 10 d
Text: as §1

barnyardgrass [8] = test: Test A postemergence; format: in vivo, Echinochloa crus-galli; conditions: 0 to 100 scale (0 no effect, 100 complete control), approx. 10 d
Text: as §1

corn [9] = test: Test A preemergence; format: in vivo, Zea mays; conditions: 0 to 100 scale (0 no effect, 100 complete control)
Text: as §1

pigweed [10] = test: Test A preemergence; format: in vivo, Amaranthus retroflexus; conditions: 0 to 100 scale (0 no effect, 100 complete control)
Text: as §1

sedge, umbrella = test: Test B flooded paddy test; format: in vivo, Cyperus difformis; conditions: 125 g ai/ha, applied to paddy water at 2-leaf stage, visual rating after 13 to 15 d, scale 0 (no effect) to 100 (complete control)
Text: as §2

rice = test: Test B flooded paddy test; format: in vivo, Oryza sativa; conditions: 125 g ai/ha, applied to paddy water at 2-leaf stage, visual rating after 13 to 15 d, scale 0 (no effect) to 100 (complete control)
Text: as §2

wheat [11] = test: Test A postemergence; format: in vivo, Triticum aestivum; conditions: 0 to 100 scale (0 no effect, 100 complete control), approx. 10 d
Text: as §1

velvetleaf [12] = test: Test A postemergence; format: in vivo, Abutilon theophrasti; conditions: 0 to 100 scale (0 no effect, 100 complete control), approx. 10 d
Text: as §1

crabgrass, large [13] = test: Test A preemergence; format: in vivo, Digitaria sanguinalis; conditions: 0 to 100 scale (0 no effect, 100 complete control)
Text: as §1

wheat [14] = test: Test A preemergence; format: in vivo, Triticum aestivum; conditions: 0 to 100 scale (0 no effect, 100 complete control)
Text: as §1

barnyardgrass [15] = test: Test A preemergence; format: in vivo, Echinochloa crus-galli; conditions: 0 to 100 scale (0 no effect, 100 complete control)
Text: as §1

foxtail, giant [16] = test: Test A preemergence; format: in vivo, Setaria faberii; conditions: 0 to 100 scale (0 no effect, 100 complete control)
Text: as §1

morningglory [17] = test: Test A preemergence; format: in vivo, Ipomoea spp.; conditions: 0 to 100 scale (0 no effect, 100 complete control)
Text: as §1

SMILES	Plant response rating, Velvetleaf (velvetleaf [1]; 125 g ai/ha)	Plant response rating, Velvetleaf (velvetleaf [1]; 500 g ai/ha, approx. 10 d)	Plant response rating, Corn (corn [2]; 125 g ai/ha)	Plant response rating, Corn (corn [2]; 500 g ai/ha)	Plant response rating, Pigweed (pigweed [3]; 125 g ai/ha)	Plant response rating, Pigweed (pigweed [3]; 500 g ai/ha)	Plant response rating, Foxtail, Giant (foxtail, giant [4]; 125 g ai/ha)	Plant response rating, Foxtail, Giant (foxtail, giant [4]; 500 g ai/ha)	Plant response rating, Morningglory (morningglory [5]; 125 g ai/ha)	Plant response rating, Morningglory (morningglory [5]; 500 g ai/ha)	Plant response rating, Ducksalad, Flood (ducksalad)	Plant response rating, Barnyardgrass, Flood (barnyardgrass [6])	Plant response rating, Crabgrass, Large (crabgrass, large [7]; 125 g ai/ha)	Plant response rating, Crabgrass, Large (crabgrass, large [7]; 500 g ai/ha)	Plant response rating, Barnyardgrass (barnyardgrass [8]; 125 g ai/ha)	Plant response rating, Barnyardgrass (barnyardgrass [8]; 500 g ai/ha)	Plant response rating, Corn (corn [9]; 125 g ai/ha)	Plant response rating, Corn (corn [9]; 500 g ai/ha, approx. 10 d)	Plant response rating, Pigweed (pigweed [10]; 125 g ai/ha)	Plant response rating, Pigweed (pigweed [10]; 500 g ai/ha, approx. 10 d)	other results
CCCc1nc(-c2ccc(C(F)(F)F)cc2)nn1Cc1ccnc(C(F)(F)F)c1 [Compound 12]	70	70	20	40	100	100	70	90	70	100	0	0	50	90	30	50	0	20	100	100	Plant response rating, Sedge, Umbrella, Flood (sedge, umbrella): 0; Plant response rating, Rice, Flood (rice): 0; Plant response rating, Wheat (wheat [11]; 125 g ai/ha): 30; Plant response rating, Wheat (wheat [11]; 500 g ai/ha): 40; Plant response rating, Velvetleaf (velvetleaf [12]; 125 g ai/ha): 70; Plant response rating, Velvetleaf (velvetleaf [12]; 500 g ai/ha): 100; Plant response rating, Crabgrass, Large (crabgrass, large [13]; 125 g ai/ha): 100; Plant response rating, Crabgrass, Large (crabgrass, large [13]; 500 g ai/ha, approx. 10 d): 100; Plant response rating, Wheat (wheat [14]; 125 g ai/ha): 10; Plant response rating, Wheat (wheat [14]; 500 g ai/ha, approx. 10 d): 30; Plant response rating, Barnyardgrass (barnyardgrass [15]; 125 g ai/ha): 50; Plant response rating, Barnyardgrass (barnyardgrass [15]; 500 g ai/ha, approx. 10 d): 80; Plant response rating, Foxtail, Giant (foxtail, giant [16]; 125 g ai/ha): 100; Plant response rating, Foxtail, Giant (foxtail, giant [16]; 500 g ai/ha, approx. 10 d): 100; Plant response rating, Morningglory (morningglory [17]; 125 g ai/ha): 70; Plant response rating, Morningglory (morningglory [17]; 500 g ai/ha, approx. 10 d): 90
Cn1nc(-c2ccc(F)cc2)nc1Cc1ccnc(C(F)(F)F)c1 [Compound 13]	20	80	30	60	100	100	80	90	70	100	65	0	70	90	50	90	0	10	100	100	Plant response rating, Sedge, Umbrella, Flood (sedge, umbrella): 80; Plant response rating, Rice, Flood (rice): 0; Plant response rating, Wheat (wheat [11]; 125 g ai/ha): 30; Plant response rating, Wheat (wheat [11]; 500 g ai/ha): 40; Plant response rating, Velvetleaf (velvetleaf [12]; 125 g ai/ha): 70; Plant response rating, Velvetleaf (velvetleaf [12]; 500 g ai/ha): 90; Plant response rating, Crabgrass, Large (crabgrass, large [13]; 125 g ai/ha): 100; Plant response rating, Crabgrass, Large (crabgrass, large [13]; 500 g ai/ha, approx. 10 d): 100; Plant response rating, Wheat (wheat [14]; 125 g ai/ha): 0; Plant response rating, Wheat (wheat [14]; 500 g ai/ha, approx. 10 d): 0; Plant response rating, Barnyardgrass (barnyardgrass [15]; 125 g ai/ha): 30; Plant response rating, Barnyardgrass (barnyardgrass [15]; 500 g ai/ha, approx. 10 d): 100; Plant response rating, Foxtail, Giant (foxtail, giant [16]; 125 g ai/ha): 100; Plant response rating, Foxtail, Giant (foxtail, giant [16]; 500 g ai/ha, approx. 10 d): 100; Plant response rating, Morningglory (morningglory [17]; 125 g ai/ha): 60; Plant response rating, Morningglory (morningglory [17]; 500 g ai/ha, approx. 10 d): 70
CCCn1nc(-c2ccc(F)cc2)nc1C(O)c1ccnc(C(F)(F)F)c1 (stereo not drawn) [Compound 16]	0	20	10	50	100	100	30	70	40	40	0	0	20	70	0	70	0	0	80	100	Plant response rating, Sedge, Umbrella, Flood (sedge, umbrella): 0; Plant response rating, Rice, Flood (rice): 0; Plant response rating, Wheat (wheat [11]; 125 g ai/ha): 10; Plant response rating, Wheat (wheat [11]; 500 g ai/ha): 30; Plant response rating, Velvetleaf (velvetleaf [12]; 125 g ai/ha): 0; Plant response rating, Velvetleaf (velvetleaf [12]; 500 g ai/ha): 40; Plant response rating, Crabgrass, Large (crabgrass, large [13]; 125 g ai/ha): 60; Plant response rating, Crabgrass, Large (crabgrass, large [13]; 500 g ai/ha, approx. 10 d): 100; Plant response rating, Wheat (wheat [14]; 125 g ai/ha): 0; Plant response rating, Wheat (wheat [14]; 500 g ai/ha, approx. 10 d): 0; Plant response rating, Barnyardgrass (barnyardgrass [15]; 125 g ai/ha): 0; Plant response rating, Barnyardgrass (barnyardgrass [15]; 500 g ai/ha, approx. 10 d): 80; Plant response rating, Foxtail, Giant (foxtail, giant [16]; 125 g ai/ha): 50; Plant response rating, Foxtail, Giant (foxtail, giant [16]; 500 g ai/ha, approx. 10 d): 90; Plant response rating, Morningglory (morningglory [17]; 125 g ai/ha): 0; Plant response rating, Morningglory (morningglory [17]; 500 g ai/ha, approx. 10 d): 20
